According to patent US7772271B2 (priority 2004, dated 2010):

Row | SMILES | melting point
1 | CC(C)OC(=O)Nc1ccc(-c2c(C#N)c3ccc(-n4ccccc4=O)cc3n2C2CCC2)cc1 [Compound 3277] | 267 to 268.5 °C
2 | C[C@@H](OC(=O)Nc1ccc(-c2c(C#N)c3cc(Oc4ncccn4)ccc3n2C2CCC2)cc1)C1CC1 [Compound 2996] | 200 to 202 °C
3 | CC(C)OC(=O)Nc1ccc(-c2c(C#N)c3ccc(N4CCOCC4)cc3n2C2CC2)cc1 [Compound 2856] | 220 to 227 °C
4 | Cc1ccnc(Oc2ccc3c(C#N)c(-c4ccc(NC(=O)O[C@H](C)C5CC5)cc4)n(C4CCC4)c3c2)n1 [Compound 2913] | 172 to 174 °C
5 | CC(C)NC(=O)Nc1ccc(-c2c(C#N)c3ccc(OC4COCOC4)cc3n2C2CCC2)cc1 [Compound 2882] | 210 to 212 °C
6 | C[C@@H](OC(=O)Nc1ccc(-c2c(C#N)c3ccc(O[C@H]4CCOC4)cc3n2C2CCC2)cc1)C1CC1 [Compound 2703] | 166 to 168 °C
7 | C[C@@H](OC(=O)Nc1ccc(-c2c(C#N)c3ccc(OC(=O)NCCc4ccccc4)cc3n2C2CCC2)cc1)C1CC1 [Compound 3173] | 203 to 206 °C
8 | C[C@@H](OC(=O)Nc1ccc(-c2c(C#N)c3ccc(OC4CCS(=O)(=O)CC4)cc3n2C2CCC2)cc1)C1CC1 [Compound 3186] | 226 to 231 °C
9 | CCn1c(-c2ccc(N3CCCS3(=O)=O)cc2)c(C#N)c2ccc(N3CCN(S(=O)(=O)C4CC4)CC3)cc21 [Compound 1357] | 278 to 280 °C
10 | CC(OC(=O)Nc1ccc(-c2c(C#N)c3ccc(OC4CCOCC4)cc3n2C2CC2)cc1)C1CC1 (stereo not drawn) [Compound 2647] | 130 to 133 °C
11 | CC(C)CS(=O)(=O)Nc1ccc(-c2c(C#N)c3ccc(Oc4nccnc4C#N)cc3n2CC2CC2)cc1 [Compound 3225] | 194 to 197 °C
12 | C[C@@H](OC(=O)Nc1ccc(-c2c(C#N)c3ccc(-c4cn(C)cn4)cc3n2C2CCC2)cc1)C1CC1 [Compound 3048] | 120 °C (dec.)
13 | CCCS(=O)(=O)Nc1ccc(-c2c(C#N)c3ccc(-c4cnccc4OC)cc3n2C2CCC2)cc1 [Compound 3202] | 240 to 242 °C
14 | N#Cc1c(-c2ccc(NC(N)=S)cc2)n(C2CCC2)c2cc(OC3COCOC3)ccc12 [Compound 2846] | 202 to 204 °C
15 | CCN(CC)C(=O)Oc1ccc(-c2c(C#N)c3ccc(OC4CCOCC4)cc3n2C2CCC2)cc1 [Compound 2816] | 137 to 138 °C
16 | CNS(=O)(=O)Nc1ccc(-c2c(C#N)c3ccc(OC4CCOCC4)cc3n2C2CCC2)cc1 [Compound 2833] | 218 to 220 °C
17 | C[C@@H](OC(=O)Nc1ccc(-c2c(C#N)c3ccc(N4CCOCC4)cc3n2C2CCC2)cc1)C1CC1 [Compound 2866] | 194 to 195 °C
18 | CC(C)C(OC(=O)Nc1ccc(-c2c(C#N)c3ccc(OC4CCOC4)cc3n2C2CCC2)cc1)C(C)C (stereo not drawn) [Compound 1454] | 183 to 184 °C
19 | CCN(CC)C(=O)c1ccc2c(C#N)c(-c3ccc(NS(=O)(=O)C4CC4)cc3)n(C3CCC3)c2c1 [Compound 2294] | 205 to 207 °C
20 | CCCS(=O)(=O)Nc1ccc(-c2c(C#N)c3ccc(-c4ncccc4Cl)cc3n2C2CCC2)cc1 [Compound 2972] | 235 to 237 °C
21 | N#Cc1c(-c2ccc(NC(=O)OCc3ccccc3)cc2)n(C2CCC2)c2ccc(OCCCn3ccnc3)cc12 [Compound 2726] | 229 to 231 °C

Row | SMILES | melting point
22 | CCn1c(-c2ccc(N3CCCS3(=O)=O)cc2)c(C#N)c2ccc(N3CCOCC3)cc21 [Compound 2926] | 247 to 248 °C
23 | CCS(=O)(=O)Nc1ccc(-c2c(C#N)c3ccc(OC4CCOCC4)cc3n2C2CC2)cc1 [Compound 2912] | 212 to 214 °C
24 | N#Cc1c(-c2ccc(NCC3CCCCC3)cc2)n(C2CCC2)c2cc(OC3CCOCC3)ccc12 [Compound 3123] | 175 to 177 °C
25 | CC(NC(=O)Nc1ccc(-c2c(C#N)c3ccc(Oc4ncccn4)cc3n2C2CCC2)cc1)c1ccc(F)cc1 (stereo not drawn) [Compound 2710] | 240 to 242 °C
26 | N#Cc1c(-c2ccc(NC(=O)O[C@H](c3ccccc3)C(F)(F)F)cc2)n(C2CCC2)c2cc(OCC3OCCO3)ccc12 [Compound 2806] | 175 to 176 °C
27 | N#Cc1c(-c2ccc(NS(=O)(=O)C3CC3)cc2)n(C2CCC2)c2cc(N3CCCCC3)ccc12 [Compound 2983] | 232 to 238 °C
28 | N#Cc1c(-c2ccc(NC(=O)NC3CCC3)cc2)n(C2CC2)c2cc(N3CCOCC3)ccc12 [Compound 2858] | 230 to 232 °C
29 | CC(C)S(=O)(=O)Nc1ccc(-c2c(C#N)c3ccc(OC(F)F)cc3n2CC2CCCO2)cc1 (stereo not drawn) [Compound 1336] | 173 to 176 °C
30 | CCOc1ccc2c(c1)c(C#N)c(-c1ccc(N(S(=O)(=O)CC)S(=O)(=O)CC)cc1)n2CC1CC1 [Compound 3078] | 180 to 182 °C
31 | C[C@@H](OC(=O)Nc1ccc(-c2c(C#N)c3ccc(C(=O)N4CCOCC4)cc3n2C2CCC2)cc1)C1CC1 [Compound 3107] | 156 to 158 °C
32 | Cc1ccnc(Oc2ccc3c(C#N)c(-c4ccc(NC(=O)O[C@H](C)C5CC5)cc4C)n(C4CCC4)c3c2)n1 [Compound 3057] | 95 to 112 °C
33 | N#Cc1c(-c2ccc(NS(=O)(=O)C3CC3)cc2)n(C2CCC2)c2cc(OC3COCOC3)ccc12 [Compound 2928] | 216 to 217 °C
34 | N#Cc1c(-c2ccc(NS(=O)(=O)C3CC3)cc2)n(C2CC2)c2cc(N3CCOCC3)ccc12 [Compound 2877] | 241 to 243 °C
35 | Cc1cccnc1-c1ccc2c(C#N)c(-c3ccc(NC(=O)O[C@H](C)C4CC4)cc3)n(C3CCC3)c2c1 [Compound 2999] | 226 to 228 °C
36 | C[C@@H](OC(=O)Nc1ccc(-c2c(C#N)c3ccc(N4CCOCC4)cc3n2C2CCC2)cc1)C(F)(F)F [Compound 2864] | 220 to 222 °C
37 | CCCS(=O)(=O)Nc1ccc(-c2c(C#N)c3ccc(Oc4ncccc4C#N)cc3n2C2CCC2)c(C)c1 [Compound 3273] | 227 to 230 °C
38 | CCOc1ccc2c(C#N)c(-c3ccc(S(=O)(=O)N4CCC(O)C4)cc3)n(C3CCC3)c2c1 (stereo not drawn) [Compound 3086] | 194 to 196 °C
39 | CCCS(=O)(=O)Nc1ccc(-c2c(C#N)c3ccc(OC4CCOCC4)cc3n2C2CCC2)cc1 [Compound 2746] | 185 to 187 °C
40 | C[C@H](NS(=O)(=O)Nc1ccc(-c2c(C#N)c3ccc(Oc4ncccc4F)cc3n2C2CCC2)cc1)C1CC1 [Compound 3018] | 155 to 157 °C
41 | C[C@@H](NC(=O)Nc1ccc(-c2c(C#N)c3ccc(Oc4ncccn4)cc3n2C2CCC2)cc1)c1ccc(F)cc1 [Compound 2819] | 150 °C (dec.)
42 | N#Cc1c(-c2ccc(Nc3nc(C(F)(F)F)cs3)cc2)n(C2CCC2)c2cc(OCCF)ccc12 [Compound 3207] | 116 to 118 °C

Next, values leading:

Row | melting point | SMILES
43 | 69 to 72 °C | CC(C)OC(=O)Nc1ccc(-c2c(C#N)c3ccc(OCCSc4ncccn4)cc3n2C2CCC2)cc1 [Compound 2698]
44 | 175 to 177 °C | CCOC(=O)Nc1ccc(-c2c(C#N)c3ccc(OCCOC)cc3n2CC)cc1 [Compound 1368]
45 | 147 to 150 °C | CCN(CC)C(=O)Nc1ccc(-c2c(C#N)c3ccc(OCCOC)cc3n2CC)cc1 [Compound 1378]
46 | 148 to 150 °C | CCn1c(-c2ccc3c(c2)CCC(=O)N3)c(C#N)c2ccc(OC(C)C)cc21 [Compound 3227]
47 | 90.2 to 95.4 °C | CCn1c(-c2ccc(NC(=O)C3CC3)cc2)c(C#N)c2ccc(OCCN(C)CCN(C)C)cc21 [Compound 1413]
48 | 157 to 159 °C | COCCOc1ccc2c(C#N)c(-c3ccc(NC(=O)O[C@H](C)C4CC4)cc3)n(C3CC3)c2c1 [Compound 2711]
49 | 182 to 183 °C | COCCOc1ccc2c(C#N)c(-c3ccc(NC(=O)Oc4ccc(Cl)cc4)cc3)n(C3CCC3)c2c1 [Compound 1401]
50 | 145 to 148 °C | CC(C)OC(=O)Nc1ccc(-c2c(C#N)c3ccc(N4CCCCC4)cc3n2CC2CC2)cc1 [Compound 2892]
51 | 189 to 192 °C | CC(C)n1c(-c2ccc(NC(=O)O[C@H](C)C3CC3)cc2)c(C#N)c2ccc(O[C@H]3CCOC3)cc21 [Compound 2742]
52 | 88 to 91 °C | CCS(=O)(=O)NCCOc1ccc2c(C#N)c(-c3ccc(NC(=O)OC(C)C4CC4)cc3)n(C3CCC3)c2c1 (stereo not drawn) [Compound 3229]
53 | 175 to 176 °C | CCn1c(-c2ccc(NC(=O)N(C)Cc3ccccc3)cc2)c(C#N)c2ccc(OCCOC)cc21 [Compound 1384]
54 | 87 to 88 °C | CS(=O)(=O)Nc1ccc(-c2c(C#N)c3ccc(OC(F)F)cc3n2CC2CCCO2)cc1 (stereo not drawn) [compound 1334, N-{4-[3-cyano-6-difluoromethoxy-1-(tetrahydro-furan-2-ylmethyl)-1H-indole-2-yl]-phenyl}-methanesulfonamide]
55 | 199 to 203 °C | CCOc1ccc2c(C#N)c(-c3ccc(NC(=O)NCCO)cc3)n(C3CCC3)c2c1 [compound 1408, 1-[4-(3-cyano-1-cyclobutyl-6-ethoxy-1H-indol-2-yl)-phenyl]-3-(2-hydroxy-ethyl)-urea]
56 | 196 to 201 °C | CSc1nccc(Oc2ccc3c(C#N)c(-c4ccc(NC(=O)OC(C)C)cc4)n(C4CCC4)c3c2)n1 [Compound 3090]
57 | 148 to 151 °C | CCn1c(-c2ccc3c(ccn3S(C)(=O)=O)c2)c(C#N)c2ccc(OC)cc21 [compound 1330, 1-ethyl-1′-methanesulfonyl-6-methoxy-1H,1′H-[2,5′]biindolyl-3-carbonitrile]
58 | 171 to 173 °C | CCn1c(-c2ccc(NC(=O)OC(C)(C)C)cc2)c(C#N)c2ccc(N3CCN(CC4CC4)CC3)cc21 [Compound 1389]
59 | 65 to 70 °C | CCCNC(=O)Nc1ccc(-c2c(C#N)c3ccc(O[Si](C)(C)C(C)(C)C)cc3n2CC)cc1 [Compound 1387]
60 | 115 to 116 °C | CCOCCOc1ccc2c(C#N)c(-c3ccc(NC(=O)OC(C)C)cc3)n(C3CCC3)c2c1 [Compound 2611]
61 | 181 to 183 °C | CCCS(=O)(=O)Nc1ccc(-c2c(C#N)c3ccc(Oc4nccc(C)n4)cc3n2CC2CC2)cc1 [Compound 2969]
62 | 108 to 110 °C | CC(OC(=O)Nc1ccc(-c2c(C#N)c3ccc(OCCCCn4cncn4)cc3n2C2CCC2)cc1)c1ccc(F)cc1 (stereo not drawn) [Compound 2644]
63 | 76 to 79 °C | COCCOc1ccc2c(C#N)c(-c3ccc(NC(=O)OC(C)c4ccccc4)cc3)n(C3CC3)c2c1 (stereo not drawn) [Compound 1438]
